Data on 6 compounds can be found in patent publication US6310273A, “Inhibiting apoptosis in plants using a baculovirus p35 protease inhibitor gene” (The Regents of the University of California, priority 1999, dated 2001).

The target of assay [1] is T1, caspase-3 (CPP32, apopain, Yama) (Homo sapiens, UniProt P42574).
T1 construct: purchased BIOMOL Research Laboratories, Inc. AK-700
T1 sequence (P42574 29-175 limits assumed): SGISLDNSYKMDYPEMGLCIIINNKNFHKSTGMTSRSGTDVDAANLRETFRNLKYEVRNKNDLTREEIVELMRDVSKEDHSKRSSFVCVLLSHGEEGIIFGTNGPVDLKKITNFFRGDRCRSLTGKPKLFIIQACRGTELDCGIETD
T1 sequence (P42574 176-277 limits assumed): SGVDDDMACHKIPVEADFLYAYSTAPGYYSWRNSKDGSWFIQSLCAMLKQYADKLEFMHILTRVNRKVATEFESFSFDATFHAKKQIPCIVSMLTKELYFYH
To be noted: 0.1 uM inhibitor; 100 ul reaction, 30 units caspase-3, 0.2 mM DEVD-p-nitroanilide; cited from earlier work.

Assay [2] deals with Pseudomonas syringae pv. phaseolicola in tobacco leaves. As to the kind of experiment: Leaf infiltration of bacteria with peptide inhibitor, cell death. The assay is classed as in vivo. The conditions noted are these: incompatible interaction (non-host hypersensitive response); inhibitor syringe-infiltrated with bacteria into leaf.
Assay [3] relates to Pseudomonas syringae pv. tomato (avrPto) in tomato (Pto/Pto) leaves. The description is as above. The conditions noted are these: incompatible interaction (host specific gene for gene hypersensitive response); inhibitor syringe-infiltrated with bacteria into leaf. The assay is classed as in vivo.
The test system of assay [4] is Pseudomonas syringae pv. syringae in tomato leaves. The assay is described as above. The assay is classed as in vivo. To be noted: compatible interaction; inhibitor syringe-infiltrated with bacteria into leaf. The procedure: (§1) A leaf of the susceptible plant of interest is syringe or vacuum infiltrated with a concentration of virulent bacteria sufficient to cause disease and tissue death. A portion of the same leaf or another leaf on the same plant of similar position and age is infiltrated with bacteria and the tetrapeptide inhibitor. Usually a 0.5 mM concentration of inhibitor is sufficient to inhibit disease but may vary according to pathogen and host plant. Disease is permitted to develop under conditions suitable for the plant/pathogen combination. Symptoms are viewed over the course of the experiment to assess the level of symptom (death) inhibition by the caspase inhibitor compared to the control. The affect of the caspase inhibitor on bacterial growth can be assayed by taking samples of the tissue and performing growth curves of the pathogen as described in the literature.
(§2) Host plant leaves are infiltrated with bacteria at a suitable concentration (10^4 -10^8 colony forming units per ml) to cause disease. Leaves of the same age and position on the same or a different plant are infiltrated with bacteria of the same concentration with the desired peptide inhibitor added. All solutions are infiltrated directly into the plant leaf lamina with a syringe. Disease symptoms in the form of dead areas of cells are quantified by time lapse color image capture and lesion area measurements determined by digital image analysis. Samples of the control tissue and inhibitor treated tissues are analyzed on a time course basis for bacterial growth rate.
(§3) Pathogen growth is measured by grinding leaf disc samples in a suitable buffer followed by serial dilutions and plating of samples onto agar plates to determine the relative number of colonies produced. Colony counts are then related back to the original undiluted samples. Growth values are reported as means of several samples with appropriate statistical measures of mean separation. Differential effects of the inhibitors thus are measured both in terms of the amount of apoptotic cell death induced (symptoms) and by the effect of altering cell death induction on the amount of pathogen growth in the tissue.

Assay [5] deals with Pseudomonas syringae pv. tabaci in tobacco leaves. Described as above. In kind it is in vivo. To be noted: compatible interaction; inhibitor syringe-infiltrated with bacteria into leaf. The method, then: as §1, §2, §3
Assay [6] deals with Pseudomonas syringae pv. tomato in tomato leaves. The description is as above. In kind it is in vivo. To be noted: compatible interaction; inhibitor syringe-infiltrated with bacteria into leaf. The method, then: as §1, §2, §3
In assay [7] the test system is Pseudomonas syringae pv. phaseolicola in bean leaves. The description is as above. The assay is classed as in vivo. To be noted: compatible interaction; inhibitor syringe-infiltrated with bacteria into leaf. The method, then: as §1, §2, §3
Assay [8] relates to Xanthamonas campestris pv tomato in tomato leaves. The assay is described as above. In kind it is in vivo. To be noted: compatible interaction; inhibitor syringe-infiltrated with bacteria into leaf. The procedure: as §1, §2, §3
Assay [9] relates to Pseudomonas syringae pv. angulata in tobacco leaves. The assay is described as above. In kind it is in vivo. To be noted: compatible interaction; inhibitor syringe-infiltrated with bacteria into leaf. The procedure: as §1, §2, §3
For assay [10], the system named is tobacco. Nature of the assay: Blocking of apoptotic death or disease in tobacco. In kind it is in vivo.
Assay [11] deals with bean. Nature of the assay: Blocking of apoptotic death or disease in bean. In kind it is in vivo.

Peptide text beside a SMILES is read from it.

For `CC(=O)N[C@@H](CC(=O)O)C(=O)N[C@@H](CCC(=O)O)C(=O)N[C@H](C(=O)N[C@H](C=O)CC(=O)O)C(C)C` [Ac-DEVD-CHO], the “blocking of caspase-3 activity” value in assay [1] was “completely blocked”. The “blocking of cell death” value in assay [2], in assay [3], in [4], in [5], in assay [6] and in assay [7] was “blocks cell death” in each case. Also, the “blocking of cell death” value in assay [8] and in assay [9] was “blocks cell death” each time.

Regarding `CSCC[C@H](NC(=O)[C@H](CC(=O)O)NC(C)=O)C(=O)N[C@@H](CCC(N)=O)C(=O)N[C@H](C=O)CC(=O)O` [Ac-DMQD-CHO] (Ac-DMQD-aldehyde), the “blocking of cell death” value in assay [2], in [5] and in assay [6] was “blocks cell death” throughout.

Consider `CC(=O)N[C@@H](Cc1ccc(O)cc1)C(=O)N[C@H](C(=O)N[C@@H](C)C(=O)N[C@H](C=O)CC(=O)O)C(C)C` [Ac-YVAD-CHO], for which the “blocking of cell death” value in assay [2], in assay [5] and in assay [6] was “blocks cell death but less well than others” in each case.

Regarding `CC(=O)N[C@@H](CC(C)C)C(=O)N[C@@H](CC(C)C)C(=O)N[C@H](C=O)CCCNC(=N)N` [leupeptin], the “blocking apoptotic death or disease” value in [10] and in assay [11] was “not effective” throughout.

Consider Ac-DQMD-aldehyde, for which the “blocking of cell death” value in assay [3] is on record as “blocks cell death”.

Take Ac-Leu-Arg-Arg-aldehyde: the “blocking of cell death” value in assay [5] is recorded as “does not block cell death”.
